Source: US20240116985A1, “STAPLED PEPTIDES AND METHODS THEREOF” (priority 2020, published 2024)

Tests used:
[1] = molecular target: T1, full-length beta-Catenin (Uniprot ID P35222) (Homo sapiens, UniProt P35222); test: Fluorescence polarization IC50 (beta-catenin / 5FAM-TCF4 10-53 competition); type: binding; details: fluorescence polarization; read-out: beta-Catenin FP IC50
T1 construct: 10 nM full-length beta-Catenin (Uniprot ID P35222)
T1 sequence (P35222 1-781): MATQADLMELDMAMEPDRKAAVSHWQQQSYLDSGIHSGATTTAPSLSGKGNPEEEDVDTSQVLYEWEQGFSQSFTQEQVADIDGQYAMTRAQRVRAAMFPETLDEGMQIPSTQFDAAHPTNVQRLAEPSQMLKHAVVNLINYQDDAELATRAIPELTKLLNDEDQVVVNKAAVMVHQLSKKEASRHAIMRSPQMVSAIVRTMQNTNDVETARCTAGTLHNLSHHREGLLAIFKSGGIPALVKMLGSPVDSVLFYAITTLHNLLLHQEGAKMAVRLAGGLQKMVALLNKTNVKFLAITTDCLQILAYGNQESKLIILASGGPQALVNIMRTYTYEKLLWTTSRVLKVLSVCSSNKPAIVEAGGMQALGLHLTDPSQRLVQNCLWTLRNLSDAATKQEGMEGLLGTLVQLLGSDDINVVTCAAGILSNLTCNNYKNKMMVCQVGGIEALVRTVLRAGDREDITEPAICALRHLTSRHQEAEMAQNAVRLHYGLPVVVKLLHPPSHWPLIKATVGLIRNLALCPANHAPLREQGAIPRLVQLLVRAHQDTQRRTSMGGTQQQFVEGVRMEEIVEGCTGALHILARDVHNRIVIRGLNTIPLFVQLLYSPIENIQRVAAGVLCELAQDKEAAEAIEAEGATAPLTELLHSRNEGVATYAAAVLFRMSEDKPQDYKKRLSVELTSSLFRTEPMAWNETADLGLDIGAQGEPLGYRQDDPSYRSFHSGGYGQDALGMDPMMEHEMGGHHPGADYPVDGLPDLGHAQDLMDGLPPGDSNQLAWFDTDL

[2] = molecular target: T2, beta-catenin/TCF4 engagement (Homo sapiens, UniProt P35222); test: Nano-BRET target engagement assay (B-cat-Halo & TCF4-Luc in HEK293 cells); type: cell-based; details: absolute IC50; read-out: NanoBRET Abs IC50
T2 construct: expressed in transfected cells; host or cells: HEK293
T2 sequence (P35222 1-781): T1 sequence (P35222 1-781)

SMILES | IC50 [1] [nM] | IC50 [2] [nM]
CC[C@@H]1NC(=O)[C@H](Cc2ccccc2)NC(=O)[C@H](C)NC(=O)C(C)(C)NC(=O)[C@H](Cc2cccc(C(=O)O)c2)NC(=O)[C@H](CC(=O)O)NC(=O)C2(CCCC=CCCCOC(=O)N3CC[C@@](C(=O)N[C@@H](Cc4ccsc4)C(=O)N[C@@H](Cc4csc5ccccc45)C(=O)N[C@@H](CCC(=O)N(CCOC)CCOC)C(N)=O)(C3)NC1=O)CCCC=CC[C@]1(CCCN1C(C)=O)C(=O)N[C@@H](CC(=O)O)C(=O)N[C@@H](CC(C)(C)C)C(=O)N2 (stereo partly drawn) [I-2559, Ac-PL3-Asp-Npg-B5-Asp-3COOHF-Aib-Ala-Phe-Abu-PyrS2-3Thi-BztA-[bismethoxyethylamine]GlnR-NH2] | 8 | 3800
CC(=O)N1CCC[C@]12CC=CCCCC1(CCCC=CCCCOC(=O)N3CC[C@@](C(=O)N[C@@H](Cc4ccsc4)C(=O)N[C@@H](Cc4csc5ccccc45)C(=O)N[C@@H](Cc4ccccc4)C(N)=O)(C3)NC(=O)[C@H]([C@@H](C)O)NC(=O)[C@H](Cc3ccccc3)NC(=O)[C@H](C)NC(=O)[C@H](CCCCNC(C)C)NC(=O)[C@H](CN(CC(=O)O)CC(F)(F)F)NC(=O)[C@H](CC(=O)O)NC1=O)NC(=O)[C@H](CC(C)(C)C)NC(=O)[C@H](CC(=O)O)NC2=O (stereo partly drawn) [I-1762, Ac-PL3-Asp-Npg-B5-Asp-TfeGA-iPrLys-Ala-Phe-Thr-PyrS2-3Thi-BztA-Phe-NH2] | 13 | > 20000
CC(=O)N1CCC[C@]12CC=CCCCC1(CCCC=CCCCOC(=O)N3CC[C@@](C(=O)N[C@@H](Cc4ccsc4)C(=O)N[C@@H](Cc4csc5ccccc45)C(=O)N[C@@H](CC(N)=O)C(=O)N[C@@H](C)C(=O)N[C@@H](CC(C)C)C(=O)N[C@@H](CC(C)C)C(N)=O)(C3)NC(=O)[C@H](CC(C)C)NC(=O)[C@H](Cc3ccccc3)NC(=O)[C@H](C)NC(=O)[C@H](C)NC(=O)[C@H](Cc3cccc(C(=O)O)c3)NC(=O)[C@H](CC(=O)O)NC1=O)NC(=O)[C@H](CC(C)(C)C)NC(=O)[C@H](CC(=O)O)NC2=O (stereo partly drawn) [I-2277, Ac-PL3-Asp-Npg-B5-Asp-3COOHF-Ala-Ala-Phe-Leu-PyrS2-3Thi-BztA-Asn-Ala-Leu-Leu-NH2] | 114 | 2300
CC(=O)N1CCC[C@]12CC=CCCCC1(CCCC=CCCCCCC[C@@](C)(C(=O)N[C@@H](Cc3ccsc3)C(=O)N[C@@H](Cc3csc4ccccc34)C(=O)N[C@@H](CCC(N)=O)C(N)=O)NC(=O)[C@H](CCO)NC(=O)[C@H](Cc3ccccc3)NC(=O)[C@H](C)NC(=O)[C@H](C)NC(=O)[C@H](CC(=O)O)NC(=O)[C@H](CC(=O)O)NC1=O)NC(=O)[C@H](CC(C)(C)C)NC(=O)[C@H](CC(=O)O)NC2=O (stereo partly drawn) [I-1389, Ac-PL3-Asp-Npg-B5-Asp-Asp-Ala-Ala-Phe-Hse-S8-3Thi-BztA-Gln-NH2] | 9 | 9200
CC(=O)N1CCC[C@]12CC=CCCCC1(CCCC=CCCCOC(=O)N3CC[C@@](C(=O)N[C@@H](Cc4ccsc4)C(=O)N[C@@H](Cc4csc5ccccc45)C(=O)N[C@@H](CCC(N)=O)C(N)=O)(C3)NC(=O)[C@H]([C@@H](C)O)NC(=O)[C@H](Cc3ccccc3)NC(=O)[C@H](C)NC(=O)[C@H](C)NC(=O)[C@H](Cc3cccc(C(=O)O)c3)NC(=O)[C@H](CC(N)=O)NC1=O)NC(=O)[C@H](CC(C)(C)C)NC(=O)[C@H](CC(=O)O)NC2=O (stereo partly drawn) [I-2336, Ac-PL3-Asp-Npg-B5-Asn-3COOHF-Ala-Ala-Phe-Thr-PyrS2-3Thi-BztA-Gln-NH2] | 19 | 14400
CC(=O)N1CCC[C@]12CC=CCCCC1(CCCC=CCCCOC(=O)N3CC[C@@](C(=O)N[C@@H](Cc4ccccc4Cl)C(=O)N[C@@H](Cc4csc5ccccc45)C(=O)N[C@H](C(N)=O)[C@@H](C)O)(C3)NC(=O)[C@H](CC(C)C)NC(=O)[C@H](Cc3ccccc3)NC(=O)[C@H](C)NC(=O)[C@H](CCCCNC(C)C)NC(=O)[C@H](CC(=O)O)NC(=O)[C@H](CC(=O)O)NC1=O)NC(=O)[C@H](CC(C)(C)C)NC(=O)[C@H](CC(=O)O)NC2=O (stereo partly drawn) [I-1276, Ac-PL3-Asp-Npg-B5-Asp-Asp-iPrLys-Ala-Phe-Leu-PyrS2-2C1F-BztA-Thr-NH2] | 10 | > 20000
